Assay: Effect of solvent on the stability of the solution (purity at various pH values and temperature)
Assay type: physicochemical
Settings: 7% solution

CCN(CC)CCOC(=O)c1ccccc1OC(C)=O.Cl
Purity(%) at day 0 (solvent 15% ethanol, pH 1.0, day 0): 99.1 ± 0.2% | Purity(%) at day 14 (5° C.) (solvent 15% ethanol, pH 1.0, day 14, 5° C.): 92.1 ± 0.3% | Purity(%) at day 14 (25° C.) (solvent 15% ethanol, pH 1.0, day 14, 25° C.): 62.7 ± 0.3% | Purity(%) at day 14 (40° C.) (solvent 15% ethanol, pH 1.0, day 14, 40° C.): 0% | Purity (%) at day 14 (60° C.) (solvent 15% ethanol, pH 1.0, day 14, 60° C.): 0% | Purity(%) at day 0 (solvent 15% ethanol, pH 2.0, day 0): 99.4 ± 0.2% | Purity(%) at day 14 (5° C.) (solvent 15% ethanol, pH 2.0, day 14, 5° C.): 96.5 ± 0.2% | Purity(%) at day 14 (25° C.) (solvent 15% ethanol, pH 2.0, day 14, 25° C.): 83.8 ± 0.3% | Purity(%) at day 14 (40° C.) (solvent 15% ethanol, pH 2.0, day 14, 40° C.): 0% | Purity (%) at day 14 (60° C.) (solvent 15% ethanol, pH 2.0, day 14, 60° C.): 0% | Purity(%) at day 0 (solvent 15% ethanol, pH 3.0, day 0): 99.5 ± 0.1% | Purity(%) at day 14 (25° C.) (solvent 15% ethanol, pH 3.0, day 14, 25° C.): 88.8 ± 0.2% | Purity(%) at day 14 (40° C.) (solvent 15% ethanol, pH 3.0, day 14, 40° C.): 2.9 ± 0.3% | Purity (%) at day 14 (60° C.) (solvent 15% ethanol, pH 3.0, day 14, 60° C.): 0% | Purity(%) at day 0 (solvent 15% ethanol, pH 3.7, day 0): 99.6 ± 0.1% | Purity(%) at day 14 (25° C.) (solvent 15% ethanol, pH 3.7, day 14, 25° C.): 96.2 ± 0.3% | Purity(%) at day 14 (40° C.) (solvent 15% ethanol, pH 3.7, day 14, 40° C.): 15.2 ± 0.3% | Purity (%) at day 14 (60° C.) (solvent 15% ethanol, pH 3.7, day 14, 60° C.): 0% | Purity(%) at day 0 (solvent 15% ethanol, pH 4.0, day 0): 99.7 ± 0.2% | Purity(%) at day 14 (25° C.) (solvent 15% ethanol, pH 4.0, day 14, 25° C.): 96.7 ± 0.2% | Purity(%) at day 14 (40° C.) (solvent 15% ethanol, pH 4.0, day 14, 40° C.): 15.7 ± 0.3% | Purity (%) at day 14 (60° C.) (solvent 15% ethanol, pH 4.0, day 14, 60° C.): 0% | Purity(%) at day 0 (solvent 15% ethanol, pH 4.3, day 0): 99.7 ± 0.1% | Purity(%) at day 14 (25° C.) (solvent 15% ethanol, pH 4.3, day 14, 25° C.): 96.7 ± 0.1% | Purity(%) at day 14 (40° C.) (solvent 15% ethanol, pH 4.3, day 14, 40° C.): 13.6 ± 0.3% | Purity (%) at day 14 (60° C.) (solvent 15% ethanol, pH 4.3, day 14, 60° C.): 0% | Purity(%) at day 0 (solvent 15% ethanol, pH 4.6, day 0): 99.6 ± 0.2% | Purity(%) at day 14 (25° C.) (solvent 15% ethanol, pH 4.6, day 14, 25° C.): 96.5 ± 0.2% | Purity(%) at day 14 (40° C.) (solvent 15% ethanol, pH 4.6, day 14, 40° C.): 4.1 ± 0.3% | Purity (%) at day 14 (60° C.) (solvent 15% ethanol, pH 4.6, day 14, 60° C.): 0% | Purity(%) at day 0 (solvent 15% ethanol, pH 5.0, day 0): 99.5 ± 0.2% | Purity(%) at day 14 (5° C.) (solvent 15% ethanol, pH 5.0, day 14, 5° C.): 97.4 ± 0.2% | Purity(%) at day 14 (25° C.) (solvent 15% ethanol, pH 5.0, day 14, 25° C.): 92.9 ± 0.2% | Purity(%) at day 14 (40° C.) (solvent 15% ethanol, pH 5.0, day 14, 40° C.): 1.3 ± 0.3% | Purity (%) at day 14 (60° C.) (solvent 15% ethanol, pH 5.0, day 14, 60° C.): 0% | Purity(%) at day 0 (solvent 15% ethanol, pH 6.0, day 0): 99.4 ± 0.2% | Purity(%) at day 14 (5° C.) (solvent 15% ethanol, pH 6.0, day 14, 5° C.): 92.3 ± 0.3% | Purity(%) at day 14 (25° C.) (solvent 15% ethanol, pH 6.0, day 14, 25° C.): 84.9 ± 0.3% | Purity(%) at day 14 (40° C.) (solvent 15% ethanol, pH 6.0, day 14, 40° C.): 0% | Purity (%) at day 14 (60° C.) (solvent 15% ethanol, pH 6.0, day 14, 60° C.): 0% | Purity(%) at day 0 (solvent 15% ethanol, pH 7.0, day 0): 99.2 ± 0.1% | Purity(%) at day 14 (5° C.) (solvent 15% ethanol, pH 7.0, day 14, 5° C.): 87.9 ± 0.3% | Purity(%) at day 14 (25° C.) (solvent 15% ethanol, pH 7.0, day 14, 25° C.): 60.2 ± 0.3% | Purity(%) at day 14 (40° C.) (solvent 15% ethanol, pH 7.0, day 14, 40° C.): 0% | Purity (%) at day 14 (60° C.) (solvent 15% ethanol, pH 7.0, day 14, 60° C.): 0% | Purity(%) at day 0 (solvent 15% ethanol, pH 8.0, day 0): 99.1 ± 0.2% | Purity(%) at day 14 (5° C.) (solvent 15% ethanol, pH 8.0, day 14, 5° C.): 58.7 ± 0.4% | Purity(%) at day 14 (25° C.) (solvent 15% ethanol, pH 8.0, day 14, 25° C.): 22.7 ± 0.3% | Purity(%) at day 14 (40° C.) (solvent 15% ethanol, pH 8.0, day 14, 40° C.): 0% | Purity (%) at day 14 (60° C.) (solvent 15% ethanol, pH 8.0, day 14, 60° C.): 0% | Purity(%) at day 0 (solvent 25% ethanol, pH 1.0, day 0): 99.1 ± 0.3% | Purity(%) at day 14 (5° C.) (solvent 25% ethanol, pH 1.0, day 14, 5° C.): 92.3 ± 0.3% | Purity(%) at day 14 (25° C.) (solvent 25% ethanol, pH 1.0, day 14, 25° C.): 63.5 ± 0.3% | Purity(%) at day 14 (40° C.) (solvent 25% ethanol, pH 1.0, day 14, 40° C.): 0% | Purity (%) at day 14 (60° C.) (solvent 25% ethanol, pH 1.0, day 14, 60° C.): 0% | Purity(%) at day 0 (solvent 25% ethanol, pH 2.0, day 0): 99.4 ± 0.3% | Purity(%) at day 14 (5° C.) (solvent 25% ethanol, pH 2.0, day 14, 5° C.): 96.9 ± 0.3% | Purity(%) at day 14 (25° C.) (solvent 25% ethanol, pH 2.0, day 14, 25° C.): 84.2 ± 0.3% | Purity(%) at day 14 (40° C.) (solvent 25% ethanol, pH 2.0, day 14, 40° C.): 0% | Purity (%) at day 14 (60° C.) (solvent 25% ethanol, pH 2.0, day 14, 60° C.): 0% | Purity(%) at day 0 (solvent 25% ethanol, pH 3.0, day 0): 99.5 ± 0.2% | Purity(%) at day 14 (25° C.) (solvent 25% ethanol, pH 3.0, day 14, 25° C.): 88.9 ± 0.2% | Purity(%) at day 14 (40° C.) (solvent 25% ethanol, pH 3.0, day 14, 40° C.): 2.9 ± 0.2% | Purity (%) at day 14 (60° C.) (solvent 25% ethanol, pH 3.0, day 14, 60° C.): 0% | Purity(%) at day 0 (solvent 25% ethanol, pH 3.7, day 0): 99.6 ± 0.1% | Purity(%) at day 14 (5° C.) (solvent 25% ethanol, pH 3.7, day 14, 5° C.): 99.1 ± 0.2% | Purity(%) at day 14 (25° C.) (solvent 25% ethanol, pH 3.7, day 14, 25° C.): 96.3 ± 0.2% | Purity(%) at day 14 (40° C.) (solvent 25% ethanol, pH 3.7, day 14, 40° C.): 15.1 ± 0.3% | Purity (%) at day 14 (60° C.) (solvent 25% ethanol, pH 3.7, day 14, 60° C.): 0% | Purity(%) at day 0 (solvent 25% ethanol, pH 4.0, day 0): 99.8 ± 0.1% | Purity(%) at day 14 (5° C.) (solvent 25% ethanol, pH 4.0, day 14, 5° C.): 99.1 ± 0.1% | Purity(%) at day 14 (25° C.) (solvent 25% ethanol, pH 4.0, day 14, 25° C.): 96.9 ± 0.1% | Purity(%) at day 14 (40° C.) (solvent 25% ethanol, pH 4.0, day 14, 40° C.): 15.2 ± 0.3% | Purity (%) at day 14 (60° C.) (solvent 25% ethanol, pH 4.0, day 14, 60° C.): 0% | Purity(%) at day 0 (solvent 25% ethanol, pH 4.3, day 0): 99.7 ± 0.2% | Purity(%) at day 14 (5° C.) (solvent 25% ethanol, pH 4.3, day 14, 5° C.): 99.1 ± 0.2% | Purity(%) at day 14 (25° C.) (solvent 25% ethanol, pH 4.3, day 14, 25° C.): 96.8 ± 0.2% | Purity(%) at day 14 (40° C.) (solvent 25% ethanol, pH 4.3, day 14, 40° C.): 13.8 ± 0.3% | Purity (%) at day 14 (60° C.) (solvent 25% ethanol, pH 4.3, day 14, 60° C.): 0% | Purity(%) at day 0 (solvent 25% ethanol, pH 4.6, day 0): 99.7 ± 0.2% | Purity(%) at day 14 (25° C.) (solvent 25% ethanol, pH 4.6, day 14, 25° C.): 96.5 ± 0.2% | Purity(%) at day 14 (40° C.) (solvent 25% ethanol, pH 4.6, day 14, 40° C.): 4.2 ± 0.1% | Purity (%) at day 14 (60° C.) (solvent 25% ethanol, pH 4.6, day 14, 60° C.): 0% | Purity(%) at day 0 (solvent 25% ethanol, pH 5.0, day 0): 99.6 ± 0.2% | Purity(%) at day 14 (25° C.) (solvent 25% ethanol, pH 5.0, day 14, 25° C.): 92.8 ± 0.2% | Purity(%) at day 14 (40° C.) (solvent 25% ethanol, pH 5.0, day 14, 40° C.): 1.6 ± 0.1% | Purity (%) at day 14 (60° C.) (solvent 25% ethanol, pH 5.0, day 14, 60° C.): 0% | Purity(%) at day 0 (solvent 25% ethanol, pH 6.0, day 0): 99.5 ± 0.3% | Purity(%) at day 14 (5° C.) (solvent 25% ethanol, pH 6.0, day 14, 5° C.): 92.7 ± 0.2% | Purity(%) at day 14 (25° C.) (solvent 25% ethanol, pH 6.0, day 14, 25° C.): 85.0 ± 0.3% | Purity(%) at day 14 (40° C.) (solvent 25% ethanol, pH 6.0, day 14, 40° C.): 0% | Purity (%) at day 14 (60° C.) (solvent 25% ethanol, pH 6.0, day 14, 60° C.): 0% | Purity(%) at day 0 (solvent 25% ethanol, pH 7.0, day 0): 99.4 ± 0.3% | Purity(%) at day 14 (5° C.) (solvent 25% ethanol, pH 7.0, day 14, 5° C.): 88.0 ± 0.3% | Purity(%) at day 14 (25° C.) (solvent 25% ethanol, pH 7.0, day 14, 25° C.): 61.2 ± 0.3% | Purity(%) at day 14 (40° C.) (solvent 25% ethanol, pH 7.0, day 14, 40° C.): 0% | Purity (%) at day 14 (60° C.) (solvent 25% ethanol, pH 7.0, day 14, 60° C.): 0% | Purity(%) at day 0 (solvent 25% ethanol, pH 8.0, day 0): 99.1 ± 0.3% | Purity(%) at day 14 (5° C.) (solvent 25% ethanol, pH 8.0, day 14, 5° C.): 59.8 ± 0.3% | Purity(%) at day 14 (25° C.) (solvent 25% ethanol, pH 8.0, day 14, 25° C.): 23.1 ± 0.3% | Purity(%) at day 14 (40° C.) (solvent 25% ethanol, pH 8.0, day 14, 40° C.): 0%

Source: patent US20230157952A1, “METHOD FOR IMPROVING THE STABILITY OF A PHARMACEUTICAL COMPOSITION COMPRISING A HIGH PENETRATION DRUG, AND THE PHARMACEUTICAL COMPOSITION OBTAINED THEREFROM” (Techfields Inc., priority 2020, published 2023)
